test system: luciferase expression in the liver; experiment: In vivo luciferase mRNA expression rodent model (lipid nanoparticle formulations of cationic lipids); parameters: species or system mice; details: luciferase expression in liver 4 hours after tail vein injection; LNP 50% cationic lipid/10% DSPC/38.5% cholesterol/1.5% PEG-DMA; MC3 activity=1
Method: Cationic lipid (MC3), DSPC, cholesterol and PEG-lipid were solubilized in ethanol at a molar ratio of 50:10:38.5:1.5. Lipid nanoparticles (LNP) were prepared at a total lipid to mRNA weight ratio of approximately 10:1 to 30:1. Briefly, the mRNA was diluted to 0.2 mg/mL in 10 to 50 mM citrate buffer, pH 4. Syringe pumps were used to mix the ethanolic lipid solution with the mRNA aqueous solution at a ratio of about 1:5 to 1:3 (vol/vol) with total flow rates above 15 mL/min. The ethanol was then removed and the external buffer replaced with PBS by dialysis. Finally, the lipid nanoparticles were filtered through a 0.2 μm pore sterile filter. Lipid nanoparticle particle size was approximately 55-95 nm diameter, and in some instances approximately 70-90 nm diameter as determined by quasi-elastic light scattering using a Malvern Zetasizer Nano ZS (Malvern, UK) or by using a Nicomp 370 submicron particle sizer (Santa Barbara, CA).
Studies were performed in 6-8 week old female C57BL/6 mice (Charles River) 8-10 week old CD-1 (Harlan) mice (Charles River) according to guidelines established by an institutional animal care committee (ACC) and the Canadian Council on Animal Care (CCAC). Varying doses of mRNA-lipid nanoparticle were systemically administered by tail vein injection and animals euthanized at specific time points (1, 2, 4, 8 and 24 hrs) post-administration. Liver and spleen were collected in pre-weighed tubes, weights determined, immediately snap frozen in liquid nitrogen and stored at −80° C. until processing for analysis.
For liver, approximately 50 mg was dissected for analyses in a 2 mL FastPrep tubes (MP Biomedicals, Solon OH). ¼″ ceramic sphere (MP Biomedicals) was added to each tube and 500 μL of Glo Lysis Buffer—GLB (Promega, Madison WI) equilibrated to room temperature was added to liver tissue. Liver tissues were homogenized with the FastPrep24 instrument (MP Biomedicals) at 2×6.0 m/s for 15 seconds. Homogenate was incubated at room temperature for 5 minutes prior to a 1:4 dilution in GLB and assessed using SteadyGlo Luciferase assay system (Promega). Specifically, 50 μL of diluted tissue homogenate was reacted with 50 μL of SteadyGlo substrate, shaken for 10 seconds followed by 5 minute incubation and then quantitated using a CentroXS^3 LB 960 luminometer (Berthold Technologies, Germany). The amount of protein assayed was determined by using the BCA protein assay kit (Pierce, Rockford IL). Relative luminescence units (RLU) were then normalized to total μg protein assayed. To convert RLU to ng luciferase a standard curve was generated with QuantiLum Recombinant Luciferase (Promega). Based on the data provided in FIG. 1, the four-hour time point was chosen for efficacy evaluation of the lipid formulations (see Example 3). […]

Structure (SMILES) | Activity Relative to MC3
CCCCCCCCC(CCCCCC)C(=O)OCCCCCCCCCC(CCCCCCCCCOC(=O)C(CCCCCC)CCCCCCCC)OC(=O)CCCN(C)C (stereo not shown) [Compound 1, 10-{[4′-(dimethylamino)butanoyl]oxy}-19-[(2-hexyldecanoyl)oxy]nonadecyl 2-hexyldecanoate] | ~2
CCCCCCCCC(CCCCCC)C(=O)OCCCCCCCCCC(CCCCCCCCCOC(=O)C(CCCCCC)CCCCCCCC)OC(=O)CCCCN(C)C (stereo not shown) [Compound 3, 10-{[5-(dimethylamino)pentanoyl]oxy}-19-[(2-hexyldecanoyl)oxy]nonadecyl 2-hexyldecanoate] | ~8
CCCCCCCCC(CCCCCC)COC(=O)CCCCCCCCCCCC(CCCCCCCCCCCC(=O)OCC(CCCCCC)CCCCCCCC)OC(=O)CCCN(C)C (stereo not shown) [Compound 2, 1,25-di-(2′-hexyldecyl)13-{[4-(dimethylamino)butanoyl]oxy}pentacosanedioate] | ~0.75
CCCCC/C=C\C/C=C\CCCCCCCCC(CCCCCCCC/C=C\C/C=C\CCCCC)OC(=O)CCCN(C)C [MC3, reference compound] | 1

Reference: US12678515B2, “Lipids and lipid nanoparticle formulations for delivery of nucleic acids” (Acuitas Therapeutics, Inc., priority 2015, dated 2026)
